Data reported in patent publication US20230024096A1, “BIFUNCTIONAL COMPOUNDS FOR THE TREATMENT OF CANCER” (Hoffmann-La Roche Inc., priority 2019, published 2023).

Target: T1, SMARCA2 (Homo sapiens, UniProt P51531)
T1 construct: endogenous in cells; host or cells: HT1080 (CRISPR HiBiT knock-in clone, generated in house)
Test: SMARCA2 HiBiT degradation assay (cellular)
Type: cell-based
Settings: table head names A549; for DC50: HiBiT-tagged SMARCA2, luminescence read-out, read-out: HiBit A549 SMARCA2 IP (nM) 6 h; for Emax: A549, 6 h incubation

[1] = Emax = amount of residual protein remaining in the cell following compound treatment

T1 sequence (P51531 whole entry): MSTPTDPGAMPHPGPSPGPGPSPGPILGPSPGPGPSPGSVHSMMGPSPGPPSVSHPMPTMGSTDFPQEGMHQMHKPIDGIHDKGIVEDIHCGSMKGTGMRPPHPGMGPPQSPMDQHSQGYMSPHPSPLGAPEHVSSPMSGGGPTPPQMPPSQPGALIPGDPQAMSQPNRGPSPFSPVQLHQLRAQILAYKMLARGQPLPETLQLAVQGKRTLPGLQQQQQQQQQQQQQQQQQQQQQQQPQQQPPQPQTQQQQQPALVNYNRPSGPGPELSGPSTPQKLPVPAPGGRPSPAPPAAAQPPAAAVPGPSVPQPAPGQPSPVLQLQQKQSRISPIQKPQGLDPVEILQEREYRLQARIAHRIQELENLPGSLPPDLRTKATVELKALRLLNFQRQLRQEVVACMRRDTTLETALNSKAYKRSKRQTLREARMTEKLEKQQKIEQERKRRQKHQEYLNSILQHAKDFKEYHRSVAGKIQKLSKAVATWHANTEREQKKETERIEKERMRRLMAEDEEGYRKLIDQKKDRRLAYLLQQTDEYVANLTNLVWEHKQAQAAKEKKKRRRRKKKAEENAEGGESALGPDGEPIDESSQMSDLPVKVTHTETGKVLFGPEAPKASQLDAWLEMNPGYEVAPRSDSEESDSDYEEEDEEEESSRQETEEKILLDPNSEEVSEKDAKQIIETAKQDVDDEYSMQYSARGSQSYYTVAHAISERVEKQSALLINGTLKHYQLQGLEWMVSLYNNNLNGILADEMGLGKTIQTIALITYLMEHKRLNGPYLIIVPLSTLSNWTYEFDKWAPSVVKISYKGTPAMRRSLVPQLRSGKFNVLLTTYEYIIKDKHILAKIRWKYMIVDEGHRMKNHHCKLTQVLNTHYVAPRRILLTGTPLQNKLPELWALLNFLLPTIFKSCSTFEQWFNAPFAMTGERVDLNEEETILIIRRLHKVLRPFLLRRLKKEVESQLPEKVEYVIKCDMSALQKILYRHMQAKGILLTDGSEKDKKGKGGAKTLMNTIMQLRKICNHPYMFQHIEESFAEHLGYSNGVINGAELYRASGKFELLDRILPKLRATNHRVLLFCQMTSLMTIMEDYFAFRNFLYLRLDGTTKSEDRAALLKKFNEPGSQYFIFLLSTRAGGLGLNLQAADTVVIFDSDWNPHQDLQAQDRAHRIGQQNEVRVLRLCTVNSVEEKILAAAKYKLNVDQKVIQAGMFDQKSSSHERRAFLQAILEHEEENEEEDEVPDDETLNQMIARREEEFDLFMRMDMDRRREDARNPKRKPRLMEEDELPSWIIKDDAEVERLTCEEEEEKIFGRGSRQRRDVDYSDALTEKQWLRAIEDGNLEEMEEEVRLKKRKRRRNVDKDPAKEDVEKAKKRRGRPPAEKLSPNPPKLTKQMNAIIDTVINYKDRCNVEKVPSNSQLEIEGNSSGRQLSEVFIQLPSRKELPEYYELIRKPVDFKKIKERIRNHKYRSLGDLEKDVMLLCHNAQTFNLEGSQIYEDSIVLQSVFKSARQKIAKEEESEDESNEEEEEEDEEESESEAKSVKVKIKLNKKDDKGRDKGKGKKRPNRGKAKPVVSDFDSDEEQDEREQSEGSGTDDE

Compound	DC50 (6 h incubation) [nM]	Emax [1] [%]	HiBit A549 SMARCA2 Emax (%) 6 h (6 h incubation, Emax = amount of residual protein remaining in the cell following compound treatment) [%]
Nc1ccccc1-c1cc(N2CC3CCC(C2)N3c2cccc(CN3CCN(C(=O)C4CCN(c5ccc6c(c5)C(=O)N(C5CCC(=O)NC5=O)C6=O)CC4)CC3)c2)c(N)nn1 (centres unmarked) [Example 147, 5-[4-[4-[[3-[3-[3-amino-6-(2-aminophenyl)pyridazin-4-yl]-3,8-diazabicyclo[3.2.1]octan-8-yl]phenyl]methyl]piperazine-1-carbonyl]-1-piperidyl]-2-(2,6-dioxo-3-piperidyl)isoindoline-1,3-dione]	236	69	–
Nc1nnc(-c2ccccc2O)cc1N1CCC2(CC1)CN(C(=O)CCC1CCN(c3cccc4c3C(=O)N(C3CCC(=O)NC3=O)C4=O)CC1)CCO2 (centres unmarked) [Example 2, 4-[4-[3-[9-[3-amino-6-(2-hydroxyphenyl)pyridazin-4-yl]-1-oxa-4,9-diazaspiro[5.5]undecan-4-yl]-3-oxo-propyl]-1-piperidyl]-2-(2,6-dioxo-3-piperidyl)isoindoline-1,3-dione]	550	53	–
Nc1nnc(-c2ccccc2O)cc1N1CCC(C(=O)N2CC3(CN(CC4CCN(c5ccc6c(c5)C(=O)N(C5CCC(=O)NC5=O)C6=O)CC4)C3)C2)(c2ccccc2)CC1 (centres unmarked) [Example 159, 5-(4-((6-(1-(3-amino-6-(2-hydroxyphenyl)pyridazin-4-yl)-4-phenylpiperidine-4-carbonyl)-2,6-diazaspiro[3.3]heptan-2-yl)methyl)piperidin-1-yl)-2-(2,6-dioxopiperidin-3-yl)isoindoline-1,3-dione]	11	27	–
Nc1nnc(-c2ccccc2O)cc1N1CCC(C(=O)NCC2CCN(CC3CCN(c4ccc5c(c4)C(=O)N(C4CCC(=O)NC4=O)C5=O)CC3)CC2)(c2ccccc2)CC1 (centres unmarked) [Example 100, 1-(3-amino-6-(2-hydroxyphenyl)pyridazin-4-yl)-N-((1-((1-(2-(2,6-dioxopiperidin-3-yl)-1,3-dioxoisoindolin-5-yl)piperidin-4-yl)methyl)piperidin-4-yl)methyl)-4-phenylpiperidine-4-carboxamide]	104	30	–
Nc1nnc(-c2ccccc2O)cc1N1CCN(c2cccc(CN3CCN(C(=O)CCC4CCN(c5ccc6c(c5)C(=O)N(C5CCC(=O)NC5=O)C6=O)CC4)CC3)c2)C2(CC2)C1 (centres unmarked) [Example 128, 5-(4-(3-(4-(3-(7-(3-amino-6-(2-hydroxyphenyl)pyridazin-4-yl)-4,7-diazaspiro[2.5]octan-4-yl)benzyl)piperazin-1-yl)-3-oxopropyl)piperidin-1-yl)-2-(2,6-dioxopiperidin-3-yl)isoindoline-1,3-dione]	18	37	–
Nc1nnc(-c2ccccc2O)cc1N1CC2CCC(C1)N2c1cccc(OCCN2CCN(C(=O)CNC(=O)C3CCN(c4ccc5c(c4)C(=O)N(C4CCC(=O)NC4=O)C5=O)CC3)CC2)c1 (racemic) [Example 19, rac-N-[2-[4-[2-[3-[3-[3-amino-6-(2-hydroxyphenyl)pyridazin-4-yl]-3,8-diazabicyclo[3.2.1]octan-8-yl]phenoxy]ethyl]piperazin-1-yl]-2-oxo-ethyl]-1-[2-(2,6-dioxo-3-piperidyl)-1,3-dioxo-isoindolin-5-yl]piperidine-4-carboxamide]	64	–	34
Nc1nnc(-c2ccccc2O)cc1OC1CCCN(c2ccc(N3CCN(C(=O)CCCCCCCC(=O)N4CC[C@H](Nc5cccc6c5C(=O)N(C5CCC(=O)NC5=O)C6=O)C4)CC3)cc2)C1 (mixture of isomers) [Example 45, 2-(2,6-dioxo-3-piperidyl)-4-[[rac-(3S)-1-[9-[4-[4-[3-[3-amino-6-(2-hydroxyphenyl)pyridazin-4-yl]oxy-1-piperidyl]phenyl]piperazin-1-yl]-9-oxo-nonanoyl]pyrrolidin-3-yl]amino]isoindoline-1,3-dione]	627	58	–
Nc1nnc(-c2ccccc2O)cc1N1CC2CCC(C1)N2c1nccc(OCCN2CCN(CCCOC3CCN(c4ccc5c(c4)C(=O)N(C4CCC(=O)NC4=O)C5=O)CC3)CC2)n1 (racemic) [Example 161, rac-5-[4-[3-[4-[2-[2-[3-[3-Amino-6-(2-hydroxyphenyl)pyridazin-4-yl]-3,8-diazabicyclo[3.2.1]octan-8-yl]pyrimidin-4-yl]oxyethyl]piperazin-1-yl]propoxy]-1-piperidyl]-2-(2,6-dioxo-3-piperidyl)isoindoline-1,3-dione]	33	30	–
Nc1nnc(-c2ccccc2O)cc1N1CC2CCC(C1)N2c1cccc(OCCN2CCN(C(=O)CNC(=O)C3CCN(c4ccc5c(c4)C(=O)N(C4CCC(=O)NC4=O)C5=O)CC3)CC2)c1 (racemic) [Example 141, rac-N-[2-[4-[2-[3-[3-[3-amino-6-(2-hydroxyphenyl)pyridazin-4-yl]-3,8-diazabicyclo[3.2.1]octan-8-yl]phenoxy]ethyl]piperazin-1-yl]-2-oxo-ethyl]-1-[2-(2,6-dioxo-3-piperidyl)-1,3-dioxo-isoindolin-5-yl]piperidine-4-carboxamide]	9	19	–
Nc1nnc(-c2ccccc2O)cc1OC1CCCN(c2ccc(N3CCN(CCCCCCCCCn4cc(CNc5cccc6c5C(=O)N(C5CCC(=O)NC5=O)C6=O)nn4)CC3)cc2)C1 (centres unmarked) [Example 37, 4-[[1-[9-[4-[4-[3-[3-amino-6-(2-hydroxyphenyl)pyridazin-4-yl]oxy-1-piperidyl]phenyl]piperazin-1-yl]nonyl]triazol-4-yl]methylamino]-2-(2,6-dioxo-3-piperidyl)isoindoline-1,3-dione]	57	34	–
Nc1nnc(-c2ccccc2O)cc1N1CC2CCC(C1)N2c1cc(F)cc(CN2CCN(C(=O)C3CCN(c4ccc5c(c4)C(=O)N(C4CCC(=O)NC4=O)C5=O)CC3)CC2)c1 (racemic) [Example 193, rac-5-[4-[4-[[3-[3-[3-Amino-6-(2-hydroxyphenyl)pyridazin-4-yl]-3,8-diazabicyclo[3.2.1]octan-8-yl]-5-fluoro-phenyl]methyl]piperazine-1-carbonyl]-1-piperidyl]-2-(2,6-dioxo-3-piperidyl)isoindoline-1,3-dione]	51	25	–
Nc1nnc(-c2ccccc2O)cc1N1CC2CCC(C1)N2c1cccc(OCCN2CCN(C(=O)C3CC4(C3)CN(c3ccc5c(c3)C(=O)N(C3CCC(=O)NC3=O)C5=O)C4)CC2)c1 (racemic) [Example 61, rac-5-[6-[4-[2-[3-[3-[3-amino-6-(2-hydroxyphenyl)pyridazin-4-yl]-3,8-diazabicyclo[3.2.1]octan-8-yl]phenoxy]ethyl]piperazine-1-carbonyl]-2-azaspiro[3.3]heptan-2-yl]-2-(2,6-dioxo-3-piperidyl)isoindoline-1,3-dione]	100	53	–
Nc1nnc(-c2ccccc2O)cc1N1CCC(OCC(=O)NC2CCN(C(=O)CN3CCC(c4ccc(OC5CCC(=O)NC5=O)cc4)CC3)CC2)(c2ccccc2)CC1 (centres unmarked) [Example 194, 2-[[1-[3-amino-6-(2-hydroxyphenyl)pyridazin-4-yl]-4-phenyl-4-piperidyl]oxy]-N-[1-[2-[4-[4-[(2,6-dioxo-3-piperidyl)oxy]phenyl]-1-piperidyl]acetyl]-4-piperidyl]acetamide]	67	61	–
Nc1nnc(-c2ccccc2O)cc1N1CCC(C(=O)N2CC3(CCN(C(=O)CC4CCN(c5ccc6c(c5)C(=O)N(C5CCC(=O)NC5=O)C6=O)CC4)C3)C2)(c2ccccc2)CC1 (centres unmarked) [Example 187, 5-(4-(2-(2-(1-(3-amino-6-(2-hydroxyphenyl)pyridazin-4-yl)-4-phenylpiperidine-4-carbonyl)-2,6-diazaspiro[3.4]octan-6-yl)-2-oxoethyl)piperidin-1-yl)-2-(2,6-dioxopiperidin-3-yl)isoindoline-1,3-dione]	579	53	–
CN(C(=O)C1CCN(Cc2cccc(N3C4CCC3CN(c3cc(-c5ccccc5O)nnc3N)C4)c2)CC1)C1CCN(c2ccc3c(c2)C(=O)N(C2CCC(=O)NC2=O)C3=O)CC1 (racemic) [Example 118, rac-1-[[3-[3-[3-amino-6-(2-hydroxyphenyl)pyridazin-4-yl]-3,8-diazabicyclo[3.2.1]octan-8-yl]phenyl]methyl]-N-[1-[2-(2,6-dioxo-3-piperidyl)-1,3-dioxo-isoindolin-5-yl]-4-piperidyl]-N-methyl-piperidine-4-carboxamide]	11	26	–
Nc1nnc(-c2ccccc2O)cc1N1CC2CCC(C1)N2c1cccc(CC2CCN(C(=O)CCC3CCN(c4ccc5c(c4)C(=O)N(C4CCC(=O)NC4=O)C5=O)CC3)CC2)c1 (racemic) [Example 59, rac-5-[4-[3-[4-[[3-[3-[3-amino-6-(2-hydroxyphenyl)pyridazin-4-yl]-3,8-diazabicyclo[3.2.1]octan-8-yl]phenyl]methyl]-1-piperidyl]-3-oxo-propyl]-1-piperidyl]-2-(2,6-dioxo-3-piperidyl)isoindoline-1,3-dione]	129	65	–
Nc1nnc(-c2ccccc2O)cc1N1CCC2(CC1)CN(C(=O)CCCCCCCCCCCn1cc(CNc3cccc4c3C(=O)N(C3CCC(=O)NC3=O)C4=O)nn1)CCO2 (centres unmarked) [Example 7, 4-[[1-[12-[9-[3-amino-6-(2-hydroxyphenyl)pyridazin-4-yl]-1-oxa-4,9-diazaspiro[5.5]undecan-4-yl]-12-oxo-dodecyl]triazol-4-yl]methylamino]-2-(2,6-dioxo-3-piperidyl)isoindoline-1,3-dione]	423	42	–
Nc1nnc(-c2cc(F)ccc2O)cc1N1CC2CCC(C1)N2c1cccc(CN2CCN(C(=O)C3CCN(c4ccc5c(c4)C(=O)N(C4CCC(=O)NC4=O)C5=O)CC3)CC2)c1 (centres unmarked) [Example 158, 5-[4-[4-[[3-[3-[3-amino-6-(5-fluoro-2-hydroxy-phenyl)pyridazin-4-yl]-3,8-diazabicyclo[3.2.1]octan-8-yl]phenyl]methyl]piperazine-1-carbonyl]-1-piperidyl]-2-(2,6-dioxo-3-piperidyl)isoindoline-1,3-dione]	–	5	–
